Values joined by “and” are separate entries in the source; they are usually repeats but may differ in a detail not shown here. Identical values can stand only once. A value given as a limit tells only on which side of the number the result lay.

In general, IC50 refers to the concentration that gives 50% inhibition. The inhibition is the change of the read-out against control, counted positive when it falls. The term pIC50 denotes −log10 of the IC50, conventionally taken in molar units. Higher therefore signals a low IC50. As usually defined, the viability is a per cent measure of how many cells are alive, often set against a control. The low end stands for more harm to the cells, the high end for less harm to the cells.

The subject of one data set is HEK-293T cells. The data set is described as follows: CytoTox-Fluor acute cytotoxicity assay. The format is cell-based. As to conditions: 30 min; for effect on cell viability: up to 31.6 μM.
Another data set addresses CaM/AC8-C2b interaction (Homo sapiens, UniProt P0DP23). The data set is described as follows: Fluorescence polarization. As to conditions: for IC50: FP; for inhibition of CaM/AC8-C2b relative to EGTA control: maximal inhibition, no detergent. The format is binding. In general terms: In fluorescence polarisation assays a small probe gives low polarisation when free and higher when bound to something large.

The next data set has as its target CaM/AC8-Nt interaction (Homo sapiens, UniProt P0DP23). The data set can be described thus: Fluorescence polarization. The format is binding. The settings on record: for IC50: FP; for slope of concentration-response curve: FP concentration response.
Data set [1] concerns the target (Homo sapiens, UniProt P0DP23). The data set can be described thus: CaM-stimulated AC1 activity in membrane preparations. The settings on record: read-out: AC1 % inhibition. The format is biochemical.
For data set [2], the target named is AC1. The description is as above. As to conditions: membranes of HEK293 cells stably expressing AC1, CaM-stimulated. It counts as biochemical.
Sequence of AC1 (Q08828 whole entry): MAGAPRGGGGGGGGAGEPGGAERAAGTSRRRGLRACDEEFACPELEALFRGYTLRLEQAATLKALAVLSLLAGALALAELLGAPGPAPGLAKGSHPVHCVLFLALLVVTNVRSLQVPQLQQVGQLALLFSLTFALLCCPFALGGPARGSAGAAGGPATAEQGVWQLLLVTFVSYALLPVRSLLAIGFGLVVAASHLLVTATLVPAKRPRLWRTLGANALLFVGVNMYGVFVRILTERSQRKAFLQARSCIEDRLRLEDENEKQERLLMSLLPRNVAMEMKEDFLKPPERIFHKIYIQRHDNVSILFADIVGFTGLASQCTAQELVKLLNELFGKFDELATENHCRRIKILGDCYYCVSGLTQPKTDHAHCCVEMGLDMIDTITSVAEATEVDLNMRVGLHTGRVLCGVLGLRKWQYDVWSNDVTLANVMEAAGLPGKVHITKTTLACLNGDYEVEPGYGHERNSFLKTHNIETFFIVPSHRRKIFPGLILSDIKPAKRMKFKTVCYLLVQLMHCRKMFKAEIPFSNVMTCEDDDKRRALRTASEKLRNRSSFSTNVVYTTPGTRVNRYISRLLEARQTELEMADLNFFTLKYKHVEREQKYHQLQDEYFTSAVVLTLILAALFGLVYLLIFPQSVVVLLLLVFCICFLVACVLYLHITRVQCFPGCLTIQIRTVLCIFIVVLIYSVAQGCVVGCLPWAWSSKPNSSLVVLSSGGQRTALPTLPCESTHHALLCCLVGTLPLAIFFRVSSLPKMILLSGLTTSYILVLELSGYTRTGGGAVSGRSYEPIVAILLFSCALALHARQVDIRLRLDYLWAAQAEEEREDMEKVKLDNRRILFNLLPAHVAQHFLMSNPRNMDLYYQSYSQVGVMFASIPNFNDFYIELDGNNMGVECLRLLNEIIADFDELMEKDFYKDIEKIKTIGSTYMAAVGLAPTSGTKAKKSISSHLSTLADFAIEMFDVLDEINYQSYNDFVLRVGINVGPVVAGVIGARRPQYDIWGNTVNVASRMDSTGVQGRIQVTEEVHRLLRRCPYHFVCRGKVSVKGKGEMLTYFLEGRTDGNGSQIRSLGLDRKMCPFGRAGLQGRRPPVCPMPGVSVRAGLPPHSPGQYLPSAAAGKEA
In another data set the target is AC8 (Homo sapiens, UniProt P40145). The data set can be described thus: CaM-stimulated AC8 activity in membrane preparations. It counts as biochemical. The settings on record: for inhibition at 100 µM: read-out: AC8 % inhibition; for potency against AC8 compared with AC1: membrane preparations.
Sequence of AC8 (P40145 whole entry): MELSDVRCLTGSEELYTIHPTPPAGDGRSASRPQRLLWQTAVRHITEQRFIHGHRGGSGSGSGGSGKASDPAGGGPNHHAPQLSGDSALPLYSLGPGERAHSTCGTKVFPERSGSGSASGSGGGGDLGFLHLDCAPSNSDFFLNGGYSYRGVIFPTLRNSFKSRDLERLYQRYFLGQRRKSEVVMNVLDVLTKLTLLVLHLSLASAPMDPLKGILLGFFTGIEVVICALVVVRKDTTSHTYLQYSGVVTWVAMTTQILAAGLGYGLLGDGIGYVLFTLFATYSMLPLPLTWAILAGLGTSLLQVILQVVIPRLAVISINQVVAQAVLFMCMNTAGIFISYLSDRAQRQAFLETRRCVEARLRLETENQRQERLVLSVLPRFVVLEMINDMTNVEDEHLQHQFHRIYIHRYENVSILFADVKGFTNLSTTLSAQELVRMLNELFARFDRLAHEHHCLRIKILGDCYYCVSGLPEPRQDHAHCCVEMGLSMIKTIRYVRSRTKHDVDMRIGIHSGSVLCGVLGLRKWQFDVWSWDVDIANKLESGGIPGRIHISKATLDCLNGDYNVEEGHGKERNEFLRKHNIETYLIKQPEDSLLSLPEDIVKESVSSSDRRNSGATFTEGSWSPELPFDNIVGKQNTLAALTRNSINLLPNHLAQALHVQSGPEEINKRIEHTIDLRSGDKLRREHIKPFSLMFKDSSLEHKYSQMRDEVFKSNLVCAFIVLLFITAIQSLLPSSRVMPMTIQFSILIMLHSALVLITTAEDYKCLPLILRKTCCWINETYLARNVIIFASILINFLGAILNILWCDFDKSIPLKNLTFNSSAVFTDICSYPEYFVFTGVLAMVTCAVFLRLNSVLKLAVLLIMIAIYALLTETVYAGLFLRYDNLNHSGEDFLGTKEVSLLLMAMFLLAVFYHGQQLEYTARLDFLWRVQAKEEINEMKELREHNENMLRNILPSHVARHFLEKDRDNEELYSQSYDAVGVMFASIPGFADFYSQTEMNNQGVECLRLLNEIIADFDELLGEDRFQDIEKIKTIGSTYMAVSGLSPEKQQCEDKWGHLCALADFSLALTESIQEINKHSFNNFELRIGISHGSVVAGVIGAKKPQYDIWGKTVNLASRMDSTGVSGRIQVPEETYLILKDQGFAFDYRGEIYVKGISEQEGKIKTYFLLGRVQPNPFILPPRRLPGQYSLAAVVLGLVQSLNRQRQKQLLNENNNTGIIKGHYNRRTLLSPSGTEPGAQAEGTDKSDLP
The next data set has as its target CaM/AC8 complex (Homo sapiens, UniProt P0DP23). The data set is described as follows: AC8/CaM NanoBiT complementation assay in HEK-293T cells. The format is cell-based, rat AC8. The settings on record: 30 min pretreatment.
Data set [3] deals with GST-tagged calmodulin (N-terminally 6X-His-GST-tagged human CaM, residues 1-149) (human) (UniProt P0DP23). The data set can be described thus: fluorescence polarisation.
Data set [4] is described as follows: CytoTox-Fluor acute cytotoxicity assay. The format is cell-based. As to conditions: human, HEK293T cells, pH 7.4.
The subject of a further data set is HERG potassium channel. The settings on record: cited from earlier work.
Data set [5] addresses AC1 (Homo sapiens, UniProt Q08828). The data set can be described thus: CaM-stimulated AC1 activity in membrane preparations. The format is biochemical.
The next data set relates to L-type Ca^2+ channels. The settings on record: cited from earlier work.
Setting [6] is: AC8-C2b pIC50, 0% Triton, 316 nM GST-CaM, 100 nM Cy5-AC8-C2b, no Triton X-100.
[7] abbreviates: AC8-C2b pIC50, 0.01% Triton, 0.01% Triton X-100.
Setting [8] is: AC8-Nt pIC50, 0% Triton, 316 nM GST-CaM, 100 nM Cy5-AC8-Nt, no Triton X-100.
Setting [9] is: AC8-Nt pIC50, 0.01% Triton, 0.01% Triton X-100.

Sequence of AC1 (Homo sapiens, UniProt Q08828) (Q08828 whole entry): as the sequence (Q08828 whole entry) above

Turning to `CCCCC(CC)CNC(=N)NC(=N)NCCCCCCNC(=N)NC(=N)NCC(CC)CCCC` (stereo not drawn) [alexidine], in the data set on HEK-293T cells (HEK-293T), the “concentration at which cell viability begins to be reduced” value is not below 10 µM. Moreover, the IC50 was 5.89 µM on CaM/AC8-C2b interaction (setting [6]); 5.89 µM on CaM/AC8-C2b interaction (setting [7]); 2.14 µM against CaM/AC8-Nt interaction (setting [8]); 1.41 µM on CaM/AC8-Nt interaction (setting [9]); 4.9 µM on AC8. For the same compound, the “slope of concentration-response curve” value at CaM/AC8-Nt interaction was −2.7 ± 0.2. In addition, the inhibition at 100 µM was found to be 162 ± 10% in [1] and 106 ± 2% at AC8. The “AC1 pIC50” value at AC1 [2] is reported as 5.24 ± 0.1.
As to `CCCCCCCCCCCCCCCC[N+](C)(C)CCN(Cc1ccc(OC)cc1)c1ncccn1` [thonzonium, Thonzonium bromide], the “effect on cell viability” value with HEK-293T cells is listed as “did not adversely affect cell viability”. Also, at CaM/AC8-C2b interaction (0.01% Triton X-100), the “effect of Triton X-100 on inhibition of CaM/AC8-C2b” value is listed as “Increased inhibition”. Besides, the IC50 at CaM/AC8-C2b interaction (setting [6]) is 10 µM; against CaM/AC8-C2b interaction (setting [7]), 12.6 µM; against CaM/AC8-Nt interaction (setting [8]) it was 5.37 µM; against CaM/AC8-Nt interaction (setting [9]) it was 9.12 µM; on AC8 it was 38.9 µM. Also, the “inhibition of CaM/AC8-C2b relative to EGTA control” value against CaM/AC8-C2b interaction is on record as “approximately 50%”. On CaM/AC8 complex, the “NanoBiT potency” value is listed as “potencies similar to that observed for CDZ”. In addition, the inhibition at 100 µM was 77 ± 6% in [1] and 91 ± 1% on AC8. In addition, the “AC1 pIC50” value on AC1 [2] amounted to 4.20 ± 0.06. Also, at AC8, the “potency against AC8 compared with AC1” value is given as “slightly more potent against AC8 than AC1”.
As for “unlabeled AC8-Nt peptide (from UniProt P40145 30-54)”, the pIC50 in [3] was determined as 5.3.
Still for that read-out and setting: then “unlabeled AC8-C2b peptide (from UniProt P40145 1191-1214)”, with 4.95.
For the compound `NCCCCCCNS(=O)(=O)c1cccc2c(Cl)cccc12` [W7, N-(6-aminohexyl)-5-chloro-1-naphthalenesulfonamide], in the data set with HEK-293T cells, the “effect on cell viability” value is recorded as “without negatively affecting cell viability”.
The same measure, in the same setting: then `CN1CCN(CCCN2c3ccccc3Sc3ccc(C(F)(F)F)cc32)CC1` [TFP, trifluoperazine], with “without negatively affecting cell viability”.
Regarding `Clc1ccc(C(c2ccc(Cl)cc2)n2cc[n+](CC(OCc3ccc(Cl)cc3Cl)c3ccc(Cl)cc3Cl)c2)cc1` (stereo not drawn) [CDZ, calmidazolium chloride], the “effect on cell viability” value with HEK-293T cells was “appreciable cell toxicity at 31.6 μM”. Besides, the “effect of Triton X-100 on inhibition of CaM/AC8-C2b” value at CaM/AC8-C2b interaction (0.01% Triton X-100) is “Increased inhibition”. The IC50 against CaM/AC8-C2b interaction (setting [6]) is 3.16 µM; at CaM/AC8-C2b interaction (setting [7]), 9.77 µM; against CaM/AC8-Nt interaction (setting [8]), 2.75 µM and 2.82 µM; on CaM/AC8-Nt interaction (setting [9]), 2.88 µM; against AC8 it was 4.68 µM. Moreover, the “inhibition of CaM/AC8-C2b relative to EGTA control” value at CaM/AC8-C2b interaction is “approximately 50%”. For the same compound, the “inhibition of CaM/AC8-Nt FP” value against CaM/AC8-Nt interaction (concentration response up to 100 μM, relative to EGTA control) is listed as “complete inhibition”. Moreover, the inhibition at 100 µM in data set [1] came out at 97 ± 3%; at AC8, 100%. For the same compound, the “AC1 pIC50” value on AC1 [2] came out at 4.87 ± 0.06.
As to `CCCCCCCCCCCC[N+](C)(C)CCOc1ccccc1` [domiphen, Domiphen bromide], the viability at 30 min, 31.6 µM in data set [4] is 99%. In addition, the “IC50 at HERG potassium channel” value in the data set on HERG potassium channel is “single-digit nanomolar”. The IC50 against CaM/AC8-Nt interaction (setting [8]) was 14.5 µM; against CaM/AC8-Nt interaction (setting [9]), 15.5 µM; against AC8 it was 17.4 µM. The values for the inhibition at 100 µM (in data set [1]; on AC8) were 96 ± 4% and 104 ± 1%, respectively. In addition, on AC1 [2], the “AC1 pIC50” value worked out at 4.55 ± 0.09.
In data set [4], `CCCCCCCCCCCCCCCC[N+](C)(C)C` [cetrimonium, cetrimonium bromide] returned a viability at 30 min, 31.6 µM of 89%. Further, the “NanoBiT potency” value on CaM/AC8 complex is reported as “potencies similar to that observed for CDZ”. Besides, the IC50 against CaM/AC8-Nt interaction (setting [8]) is 11.5 µM; at CaM/AC8-Nt interaction (setting [9]), 11.5 µM; against AC1 [5] it was 39.8 µM; on AC8, 22.4 µM. Further, the inhibition at 100 µM on AC1 [5] (read-out: AC1 % inhibition) was determined as 86 ± 7%; at AC8, 102 ± 2%. Besides, the “potency against AC8 compared with AC1” value at AC8 is listed as “slightly more potent against AC8 than AC1”.
Turning to `CC(C)(C)CC(C)(C)c1ccc(OCCOCC[N+](C)(C)Cc2ccccc2)cc1` [benzethonium, Benzethonium chloride], in the data set with HEK-293T cells, the “effect on cell viability” value is “no negative effect on cell viability”.
The compound `CCCCCCCCOc1ccccc1C(=O)Nc1ccc(C(=O)OCC[N+](C)(CC)CC)cc1` [otilonium, otilonium bromide] returned a viability at 30 min, 31.6 µM in data set [4] of 77%. The IC50 against CaM/AC8-Nt interaction (setting [8]) is 16.6 µM; on CaM/AC8-Nt interaction (setting [9]) it was 33.1 µM; against AC8, 24 µM. For the same compound, on CaM/AC8-Nt interaction, the “slope of concentration-response curve” value was −3.5 ± 0.2. In addition, the “IC50 at L-type Ca2+ channels” value in the data set with L-type Ca^2+ channels is listed as “single-digit micromolar”. The inhibition at 100 µM was determined as 103 ± 4% in [1] and 99 ± 1% on AC8. Moreover, at AC1 [2], the “AC1 pIC50” value amounted to 4.58 ± 0.03.

Source of the values: PMC6362833 (ACS chemical neuroscience, 2017).
